Test results reported in patent US20260035359A1, “HERBICIDAL IMIDAZOLE COMPOUNDS” (SYNGENTA CROP PROTECTION AG, priority 2022, published 2026).

Columns and labels:
Assay type in all cases: in vivo
[1] = system: Amaranthus pa/meri (AMAPA); assay: Post-emergence herbicidal glasshouse test; details: 250 g/ha, sprayed after 8 days cultivation, evaluated after 13 days
Procedure, shortened: (§1)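 Glasshouse spray test, 250 g/ha unless otherwise stated, applied 1 d (pre-emergence) or 8 d (post-emergence) after sowing. Percentage damage is scored at 13 d, banded 1 (0-20%) to 5 (81-100%).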

[2] = system: Amaranthus retoflexus (AMARE); assay: Post-emergence herbicidal glasshouse test; details: 250 g/ha, sprayed after 8 days cultivation, evaluated after 13 days
Procedure, shortened: as §1

[3] = system: Echinochloa crus-gali (ECHCG); assay: Post-emergence herbicidal glasshouse test; details: 250 g/ha, sprayed after 8 days cultivation, evaluated after 13 days
Procedure, shortened: as §1

[4] = system: Ipomoea hederacea (IPOHE); assay: Post-emergence herbicidal glasshouse test; details: 250 g/ha, sprayed after 8 days cultivation, evaluated after 13 days
Procedure, shortened: as §1

Setaria faberi (SETFA) [5] = assay: Post-emergence herbicidal glasshouse test; details: 250 g/ha, sprayed after 8 days cultivation, evaluated after 13 days
Procedure, shortened: as §1

[6] = system: Amaranthus pa/meri (AMAPA); assay: Pre-emergence herbicidal glasshouse test; details: 250 g/ha, sprayed after one day cultivation, evaluated after 13 days
Procedure, shortened: as §1

[7] = system: Amaranthus retoflexus (AMARE); assay: Pre-emergence herbicidal glasshouse test; details: 250 g/ha, sprayed after one day cultivation, evaluated after 13 days
Procedure, shortened: as §1

[8] = system: Echinochloa crus-gali (ECHCG); assay: Pre-emergence herbicidal glasshouse test; details: 250 g/ha, sprayed after one day cultivation, evaluated after 13 days
Procedure, shortened: as §1

[9] = system: Ipomoea hederacea (IPOHE); assay: Pre-emergence herbicidal glasshouse test; details: 250 g/ha, sprayed after one day cultivation, evaluated after 13 days
Procedure, shortened: as §1

Setaria faberi (SETFA) [10] = assay: Pre-emergence herbicidal glasshouse test; details: 250 g/ha, sprayed after one day cultivation, evaluated after 13 days
Procedure, shortened: as §1

| SMILES | percentage damage caused to the plant, AMAPA [1] | percentage damage caused to the plant, AMARE [2] | percentage damage caused to the plant, ECHCG [3] | percentage damage caused to the plant, IPOHE [4] | percentage damage caused to the plant, SETFA (Setaria faberi (SETFA) [5]) | percentage damage caused to the plant, AMAPA [6] | percentage damage caused to the plant, AMARE [7] | percentage damage caused to the plant, ECHCG [8] | percentage damage caused to the plant, IPOHE [9] | percentage damage caused to the plant, SETFA (Setaria faberi (SETFA) [10]) |
| --- | --- | --- | --- | --- | --- | --- | --- | --- | --- | --- |
| N#Cc1cn(Cc2ncc(Cl)cn2)c(CC2CCOC2)n1 (stereo not drawn) [Compound 1.073, 1-[(5-chloropyrimidin-2-yl)methyl]-2-(tetrahydrofuran-3-ylmethyl)imidazole-4-carbonitrile] | 2 (2=21-40%) | 2 (2=21-40%) | 1 (1=0-20%) | 3 (3=41-60%) | 1 (1=0-20%) | 2 (2=21-40%) | 2 (2=21-40%) | 1 (1=0-20%) | 2 (2=21-40%) | 1 (1=0-20%) |
| CC(O)CCc1nc(C(F)(F)F)cn1Cc1ncc(Cl)cn1 (stereo not drawn) [Compound 1.082] | 3 (3=41-60%) | 2 (2=21-40%) | 1 (1=0-20%) | 1 (1=0-20%) | 1 (1=0-20%) | 2 (2=21-40%) | 4 (4=61-80%) | 1 (1=0-20%) | 1 (1=0-20%) | 2 (2=21-40%) |
| CSCCc1nc(C(F)(F)F)cn1Cc1ncc(Cl)cn1 [Compound 1.083] | 3 (3=41-60%) | 4 (4=61-80%) | 1 (1=0-20%) | 4 (4=61-80%) | 1 (1=0-20%) | 3 (3=41-60%) | 4 (4=61-80%) | 1 (1=0-20%) | 5 (5=81-100%) | 1 (1=0-20%) |
| C#Cc1nc(C(F)(F)F)cn1Cc1ncc(Cl)cn1 [Compound 1.084] | 2 (2=21-40%) | 2 (2=21-40%) | 1 (1=0-20%) | 1 (1=0-20%) | 1 (1=0-20%) | 1 (1=0-20%) | 2 (2=21-40%) | 1 (1=0-20%) | 1 (1=0-20%) | 1 (1=0-20%) |
| CC(F)(F)CCc1nc(C(F)(F)F)cn1Cc1ncc(Cl)cn1 [Compound 1.085] | 5 (5=81-100%) | 5 (5=81-100%) | 4 (4=61-80%) | 4 (4=61-80%) | 5 (5=81-100%) | 5 (5=81-100%) | 5 (5=81-100%) | 5 (5=81-100%) | 5 (5=81-100%) | 5 (5=81-100%) |
| CC(C)(O)CCc1nc(C(F)(F)F)cn1Cc1ncc(Cl)cn1 [Compound 1.086] | 2 (2=21-40%) | 2 (2=21-40%) | 1 (1=0-20%) | 3 (3=41-60%) | 1 (1=0-20%) | 1 (1=0-20%) | 1 (1=0-20%) | 1 (1=0-20%) | 3 (3=41-60%) | 1 (1=0-20%) |
